According to patent US6569996B1, “Antibody that specifically binds to the cadherin-5 cell adhesion recognition sequence” (Adherex Technologies, Inc., priority 1998, dated 2003):

Columns and labels:
[1] = test system: MDA-MB-231 human breast cancer cells; experiment: Disruption of human breast cancer cell adhesion (phase contrast microscopy); assay type: cell-based; conditions: 100 μl of 10 mg/ml peptide stock added to 1 ml DMEM containing 5% serum; for cell morphology and attachment to the substratum: after 24 hours, cells express cadherin-11 (OB-cadherin) but not N-cadherin or E-cadherin
Description: MDA-MB-231 human breast cancer cells (Lombardi Cancer Research Center, Washington, D.C.) were used in these experiments. They express cadherin-11 (also known as OB-cadherin) but not N-cadherin or E-cadherin. The cells were plated (˜50.000 cells) on glass coverslips and cultured for 24 hours in DMEM containing 5% serum. Peptides (N-Ac-IFVIDDKSG-NH2 (SEQ ID NO:85) and H-IFVIDDKSG-OH (SEQ ID NO:85)) were dissolved in sterile water (10 mg/ml), and 100 μl of each peptide stock solution was added to 1 ml of DMEM containing 5% serum. Control cells had 100 μl of water added to the medium. Cells were monitored by phase contrast microscopy. After 24 hours cells were fixed in formaldehyde. […] The amino acid sequence of this peptide is identical to that which is found in the first extracellular domain of OB-cadherin.

[2] = test system: Human umbilical vein endothelial cells; experiment: Disruption of endothelial cell adhesion (VE-cadherin immunolabeling); assay type: cell-based
Description: Human umbilical vein endothelial cells were cultured using standard procedures (see Ichikawa et al., Amer. J. Physiol. 273 (Gastrointest. Liver Physiol. 36): […], 1997). Cells were maintained in EGM (Clonetics, San Diego, Calif.) and used at P2 for all experiments. Endothelial identity was established by Dil-LDL and factor VIII staining.
The cells were cultured on glass coverslips. Monolayers were exposed to peptides at a concentration of 75 μg/mL for 60 minutes. The cells were then fixed with 95% ethanol for 30 minutes at 4° C., followed by acetone for one minute and left to air dry at room temperature. Primary antibody for VE-cadherin (Immunotech, MarseiIles, France; 1:250) was added for one hour at 37° C. Coverslips were then washed with 0.1% milk/PBS solution three times for five minutes each. Secondary antibody (1:250), goat anti-rabbit FITC (Zymed, San Francisco, Calif.) was incubated at 37° C. for one hour. Coverslips were again washed with 0.1% milk/PBS solution three times for five minutes each. Coverslips were mounted with anti-quenching solution (1 mg/mL phenylenediamine (Sigma, St. Louis, Mo.) in 50% glycerol, 50% PBS). All photographs were taken at 400× and 1000× with exposure times of 12 seconds.

Row | Substance | cell morphology and attachment to the substratum [1] | effect on cell adhesion ([1]; 24 hours) | activity relative to similar peptide without the N- and C-terminal functional groups ([2]; 75 μg/mL for 60 minutes, comparison with H-VFRVDAETGD-OH) | effect on endothelial cell adhesion ([2]; 75 μg/mL peptide for 60 minutes, monolayers on glass coverslips, VE-cadherin immunolabel, 400× and 1000×)
1 | H-IFVIDDKSG-OH | remained flattened and well-attached to the substratum | – | – | –
2 | N-Ac-IFVIDDKSG-NH2 | rounded up from each other and were not well-attached to the substratum | interferes with cell adhesion | – | –
3 | N-Ac-VFRVDAETGD-NH2 | – | – | substantially greater | disrupts endothelial cell adhesion
